Reference: PubChem BioAssay AID1259408 (Genetic Toxicology Data Bank (GENE-TOX), 2018)
Active and inactive are the calls of the source. How the calls were made is not given here.

Test system: GENE-TOX genotoxicity assays, various organisms and cells
Assay: GENE-TOX mutagenicity studies
Details: for call: Assay Type: In vivo carcinogenicity studies
[1] = Species/Cell Type: Drosophila melanogaster, Assay Type: Sex-linked recessive lethal gene mutation, Assay Code: SRL+, Evaluation Type: Evaluation A (Pre-1980)
[2] = Species/Cell Type: Nonhuman, Assay Code: CCG+, Evaluation Type: Evaluation A (Pre-1980)
[3] = Species/Cell Type: Salmonella typhimurium (one or more of the five standard strains: TA98, TA100, TA1535, TA1537, and TA1538), Assay Type: Histidine reverse gene mutation, Ames assay, Assay Code: SAL+, Evaluation Type: Evaluation A (Pre-1980)
[4] = Species/Cell Type: Human diploid fibroblasts, Assay Type: Unscheduled DNA synthesis (UDS) in vitro, DNA effects, Assay Code: UDH+, Evaluation Type: Evaluation A (Pre-1980)
[5] = Species/Cell Type: Saccharomyces cerevisiae, Assay Type: Mitotic recombination or gene conversion, Assay Code: YEC-, Evaluation Type: Evaluation A (Pre-1980)
[6] = Species/Cell Type: Salmonella typhimurium (one or more of the five standard strains: TA98, TA100, TA1535, TA1537, and TA1538), Assay Type: Histidine reverse gene mutation, Ames assay, Assay Code: SALT, Evaluation Type: Evaluation A (Pre-1980)
[7] = Species/Cell Type: Schizosaccharomyces pombe, Assay Type: Reverse gene mutation, Assay Code: YEZ+, Evaluation Type: Evaluation A (Pre-1980)
[8] = Species/Cell Type: Nonhuman, Assay Type: Sister-chromatid exchange (SCE) in vitro, Assay Code: SC2+D, Dose Response: With dose response, Evaluation Type: Evaluation B (Post-1980)
[9] = Species/Cell Type: Bacillus subtilis (H17 vs M45T), Assay Type: Rec-assay, spot test, DNA effects (bacterial DNA repair), Assay Code: REX+, Evaluation Type: Evaluation A (Pre-1980)
[10] = Species/Cell Type: Escherichia coli WP2, Assay Type: Tryptophan reverse gene mutation, Assay Code: WP2+, Evaluation Type: Evaluation A (Pre-1980)
[11] = Species/Cell Type: Saccharomyces cerevisiae, Assay Type: Mitotic recombination or gene conversion, Assay Code: YEC+, Evaluation Type: Evaluation A (Pre-1980)
[12] = Species/Cell Type: Escherichia coli polA (W3119 vs P3478), Assay Type: Rec-assay, DNA effects (bacterial DNA repair), Assay Code: RE1-, Evaluation Type: Evaluation A (Pre-1980)

O=P(OCC(Br)CBr)(OCC(Br)CBr)OCC(Br)CBr (stereo not drawn)
mutagenic call (Species/Cell Type: Chinese hamster lung (V79) cells, Assay Type: Forward gene mutation, host-mediated assay, Assay Code: HMG+, Evaluation Type: Evaluation A (Pre-1980)): active; positive
mutagenic call [1]: active; positive
mutagenic call (Species/Cell Type: Drosophila melanogaster, Sex: Male, Assay Type: Heritable translocation test, chromosome aberrations, Assay Code: DHT+, Evaluation Type: Evaluation A (Pre-1980)): active; positive
mutagenic call (Species/Cell Type: Human, Assay Type: Sister-chromatid exchange (SCE) in vitro, Assay Code: SC1+, Evaluation Type: Evaluation B (Post-1980)): active; positive
mutagenic call (Species/Cell Type: Mammalian polychromatic erythrocytes, Assay Type: Micronucleus test, chromosome aberrations, Assay Code: MNT+, Evaluation Type: Evaluation B (Post-1980)): active; positive
mutagenic call (Species/Cell Type: Mouse, Sex: Male, Assay Type: Sperm morphology, Assay Code: SPI+, Evaluation Type: Evaluation A (Pre-1980)): active; positive
call [2]: active; positive
mutagenic call (Species/Cell Type: Nonhuman, Assay Type: Sister-chromatid exchange (SCE) in vitro, Assay Code: SC2+D, Dose Response: With dose response, Evaluation Type: Evaluation A (Pre-1980)): active; positive
mutagenic call (Species/Cell Type: Nonhuman, Assay Type: Sister-chromatid exchange (SCE) in vivo, Assay Code: SC3+D, Dose Response: With dose response, Evaluation Type: Evaluation A (Pre-1980)): active; positive
mutagenic call [3]: active; positive

O=C1CC[C@@]2(O)[C@H]3Cc4ccc(O)c5c4[C@@]2(CCN3CC2CC2)[C@H]1O5
mutagenic call [1]: active; positive
mutagenic call (Species/Cell Type: Drosophila melanogaster, Sex: Male, Assay Type: Heritable translocation test, chromosome aberrations, Assay Code: DHT-, Evaluation Type: Evaluation A (Pre-1980)): inactive; negative
mutagenic call [4]: active; positive
mutagenic call [5]: inactive; negative
mutagenic call [6]: no conclusion

C[C@@H]1C[C@@H]2OC(=O)[C@]3(C)[C@H]2[C@@H](OC3(C)O)[C@]2(C)C(=O)C=C[C@@H]12 (stereo partly drawn)
mutagenic call (Species/Cell Type: Salmonella typhimurium (one or more of the five standard strains: TA98, TA100, TA1535, TA1537, and TA1538), Assay Type: Histidine reverse gene mutation, Ames assay, Assay Code: SAL-, Evaluation Type: Evaluation A (Pre-1980)): inactive; negative

CCOS(=O)(=O)CCl
mutagenic call [7]: active; positive

OO
mutagenic call (Species/Cell Type: Escherichia coli polA (W3119 vs P3478), Assay Type: Rec-assay, DNA effects (bacterial DNA repair), Assay Code: RE1+, Evaluation Type: Evaluation A (Pre-1980)): active; positive
mutagenic call [4]: active; positive
mutagenic call (Species/Cell Type: Human lymphocytes, Assay Type: Sister-chromatid exchange (SCE) in vitro, Assay Code: SCL+D, Dose Response: With dose response, Evaluation Type: Evaluation B (Post-1980)): active; positive
mutagenic call (Species/Cell Type: Human, Assay Type: Sister-chromatid exchange (SCE) in vitro, Assay Code: SC1+D, Dose Response: With dose response, Evaluation Type: Evaluation B (Post-1980)): active; positive
mutagenic call (Species/Cell Type: Neurospora crassa, Assay Type: Reverse gene mutation, Assay Code: NER+, Evaluation Type: Evaluation A (Pre-1980)): active; positive
mutagenic call [8]: active; positive
mutagenic call [6]: no conclusion
mutagenic call [7]: active; positive
mutagenic call (Species/Cell Type: Vicia faba, Assay Type: Chromosome aberrations, Assay Code: VIC-, Evaluation Type: Evaluation A (Pre-1980)): inactive; negative

C[C@]12C=CC(=O)C=C1CC[C@@H]1[C@@H]2[C@@H](O)C[C@@]2(C)[C@H]1CC[C@]2(O)C(=O)CO
mutagenic call (Species/Cell Type: Human lymphocytes, Assay Type: Sister-chromatid exchange (SCE) in vivo, Assay Code: SCY+, Evaluation Type: Evaluation B (Post-1980)): active; positive
mutagenic call (Species/Cell Type: Human, Sex: Male, Assay Type: Sperm morphology, Assay Code: SPH+, Evaluation Type: Evaluation A (Pre-1980)): active; positive

Nc1ccc2c(c1)C(=O)c1ccccc1C2=O
call [2]: active; positive

Nc1cccc2cccnc12
mutagenic call (Species/Cell Type: Drosophila melanogaster, Assay Type: Sex-linked recessive lethal gene mutation, Assay Code: SRLT, Evaluation Type: Evaluation A (Pre-1980)): no conclusion
mutagenic call (Species/Cell Type: Saccharomyces cerevisiae, Assay Type: Forward gene mutation, Assay Code: YEF-*, Activation: With metabolic activation, Evaluation Type: Evaluation A (Pre-1980)): inactive; negative
mutagenic call (Species/Cell Type: Saccharomyces cerevisiae, Assay Type: Mitotic recombination or gene conversion, Assay Code: YEC-*, Activation: With metabolic activation, Evaluation Type: Evaluation A (Pre-1980)): inactive; negative
mutagenic call (Species/Cell Type: Saccharomyces cerevisiae, Assay Type: Mitotic recombination or gene conversion, Assay Code: YEH-*, Activation: With metabolic activation, Evaluation Type: Evaluation A (Pre-1980)): inactive; negative
mutagenic call (Species/Cell Type: Saccharomyces cerevisiae, Assay Type: Reverse gene mutation, Assay Code: YER+, Evaluation Type: Evaluation A (Pre-1980)): active; positive
mutagenic call [3]: active; positive

CN(N=O)C(=O)Oc1cccc2ccccc12
mutagenic call [9]: active; positive
mutagenic call [10]: active; positive
mutagenic call [8]: active; positive
mutagenic call [11]: active; positive
mutagenic call [3]: active; positive

COc1cccc(OC)c1C(=O)N[C@@H]1C(=O)N2[C@@H]1SC(C)(C)[C@@H]2C(=O)O
mutagenic call [12]: inactive; negative

CN(CCCCOC[C@H](N)C(=O)O)N=O
mutagenic call (Species/Cell Type: Escherichia coli polA (W3110 vs P3478), Assay Type: Rec-assay, DNA effects (bacterial DNA repair), Assay Code: RE2-, Evaluation Type: Evaluation A (Pre-1980)): inactive; negative
mutagenic call (Species/Cell Type: Escherichia coli polA (W3119 vs P3478), Assay Type: Rec-assay, DNA effects (bacterial DNA repair), Assay Code: RE1T, Evaluation Type: Evaluation A (Pre-1980)): no conclusion

CC1(C)[C@@H](O[C@H]2O[C@H](C(=O)O)[C@@H](O)[C@H](O)[C@H]2O[C@@H]2O[C@H](C(=O)O)[C@@H](O)[C@H](O)[C@H]2O)CC[C@]2(C)[C@H]3C(=O)C=C4[C@@H]5C[C@@](C)(C(=O)O)CC[C@]5(C)CC[C@@]4(C)[C@]3(C)CC[C@@H]12
mutagenic call (Species/Cell Type: Human, Assay Type: Sister-chromatid exchange (SCE) in vitro, Assay Code: SC1T, Evaluation Type: Evaluation B (Post-1980)): no conclusion

C[C@@]1(O)C=Cc2cc3c(ccc4ccccc43)c3c2[C@@]1(O)CC3
mutagenic call (Species/Cell Type: Chinese hamster lung (V79) cells, Assay Type: Forward gene mutation at the HPRT or ouabain locus, Assay Code: V79-, Evaluation Type: Evaluation A (Pre-1980)): inactive; negative
call (Species/Cell Type: Nonhuman, Assay Code: CCGT, Evaluation Type: Evaluation A (Pre-1980)): no conclusion
mutagenic call [6]: no conclusion

CCS(=O)(=O)OC
mutagenic call (Species/Cell Type: Glycine max (soybean), Assay Type: Gene mutation, Assay Code: GLM+, Evaluation Type: Evaluation A (Pre-1980)): active; positive
mutagenic call (Species/Cell Type: Hordeum vulgare (barley), Assay Type: Chromosome aberrations, Assay Code: HOC+, Evaluation Type: Evaluation A (Pre-1980)): active; positive
mutagenic call (Species/Cell Type: Hordeum vulgare (barley), Assay Type: Gene mutation, Assay Code: HOM+D, Dose Response: With dose response, Evaluation Type: Evaluation A (Pre-1980)): active; positive
mutagenic call (Species/Cell Type: Rabbit, Sex: Male, Assay Type: Sperm morphology, Assay Code: SPRT, Evaluation Type: Evaluation A (Pre-1980)): no conclusion

N#Cc1c(Cl)cccc1Cl
mutagenic call [5]: inactive; negative

CN[C@H]1C[C@H](O[C@H]2C[C@](O)(C(C)=O)Cc3c(O)c4c(c(O)c32)C(=O)c2c(OC)cccc2C4=O)O[C@@H](C)[C@H]1O
mutagenic call (Species/Cell Type: Salmonella typhimurium (one or more of the five standard strains: TA98, TA100, TA1535, TA1537, and TA1538), Assay Type: Histidine reverse gene mutation, Ames assay, Assay Code: SAL+*, Activation: With metabolic activation, Evaluation Type: Evaluation A (Pre-1980)): active; positive

COC(=O)COc1ccc(Cl)cc1CSC(=N)N
mutagenic call (Species/Cell Type: Saccharomyces cerevisiae, Assay Type: Reverse gene mutation, Assay Code: YERT, Evaluation Type: Evaluation A (Pre-1980)): no conclusion

O=c1[nH]c(=O)[nH]c(=O)[nH]1
mutagenic call (Species/Cell Type: Nonhuman, Assay Type: Sister-chromatid exchange (SCE) in vitro, Assay Code: SC2-, Evaluation Type: Evaluation B (Post-1980)): inactive; negative

O=NN(CCCl)C(=O)NCCCO
mutagenic call [1]: active; positive
mutagenic call [11]: active; positive

O=C(OCC1=CCN2CC[C@@H](OC(=O)c3ccc([N+](=O)[O-])cc3)[C@@H]12)c1ccc([N+](=O)[O-])cc1
mutagenic call (Species/Cell Type: Allium cepa, Assay Type: Chromosome aberrations, Assay Code: ALC+, Evaluation Type: Evaluation A (Pre-1980)): active; positive

Cc1cccc(OC(=O)N(C)N=O)c1
mutagenic call [9]: active; positive
mutagenic call [10]: active; positive

CCC1(c2ccccc2)CCC(=O)NC1=O (stereo not drawn)
mutagenic call (Species/Cell Type: Drosophila melanogaster, Assay Type: Aneuploidy, sex chromosome gain, chromosome aberrations, Assay Code: DAG-M, Evaluation Type: Evaluation A (Pre-1980)): inactive; negative
mutagenic call (Species/Cell Type: Drosophila melanogaster, Assay Type: Aneuploidy, whole sex chromosome loss, chromosome aberrations, Assay Code: DAC-M, Evaluation Type: Evaluation A (Pre-1980)): inactive; negative

c1ncc2[nH]cnc2n1
mutagenic call [12]: inactive; negative
